Earlier results, collected in patent publication US20260000700A1, “TARGETED LINEAR CONJUGATES COMPRISING POLYETHYLENEIMINE AND POLYETHYLENE GLYCOL AND POLYPLEXES COMPRISING THE SAME” (TARGIMMUNE THERAPEUTICS AG, priority 2022, published 2026).

Molecular target: EGFR (Homo sapiens, UniProt P00533)

Kd: 22 nM
Sequence: YHWYGYTPQNVI [GE-11]
